Positions count from the first letter of the chain named. Names and notes keep the numbering of the source.
Tests used:
[1] = target: T1, scyllo-inositol dehydrogenase with L-glucose dehydrogenase activity (Pl-scyllo-IDH) (Paracoccus laeviglucosivorans, UniProt K7ZP76); assay: X-ray crystal structure, […] Å; type: binding
T1 construct: gene lgdA; lgdA in pET21a(+), expressed in E. coli BL21(DE3), Ni-NTA purified; homo-tetramer, active site includes H318 of the adjacent subunit
T1 sequence (K7ZP76 1-372): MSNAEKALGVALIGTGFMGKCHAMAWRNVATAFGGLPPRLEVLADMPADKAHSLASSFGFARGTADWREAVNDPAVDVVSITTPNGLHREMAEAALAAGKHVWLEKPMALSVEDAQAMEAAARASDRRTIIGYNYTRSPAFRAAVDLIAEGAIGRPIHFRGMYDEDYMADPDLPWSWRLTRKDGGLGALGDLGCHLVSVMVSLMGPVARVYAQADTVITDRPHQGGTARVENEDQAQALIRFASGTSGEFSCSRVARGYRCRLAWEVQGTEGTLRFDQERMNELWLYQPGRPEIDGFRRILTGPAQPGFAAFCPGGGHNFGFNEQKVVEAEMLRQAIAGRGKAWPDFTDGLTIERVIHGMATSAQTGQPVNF

[2] = target: T1, scyllo-inositol dehydrogenase with L-glucose dehydrogenase activity (Pl-scyllo-IDH); assay: X-ray crystal structure, […] Å; type: binding; remark: listed apart in the source
[3] = target: T1, scyllo-inositol dehydrogenase with L-glucose dehydrogenase activity (Pl-scyllo-IDH); assay: X-ray crystal structure, […] Å; type: binding; conditions: crystal soaked with 100 mM myo-inositol and 25 mM NAD+; active site
purified protein = substrate: O[C@H]1[C@H](O)[C@@H](O)[C@H](O)[C@@H](O)[C@@H]1O; assay: purified protein; type: biochemical, Paracoccus laeviglucosivorans; conditions: 20 mM NAD+, 100 mM Tris-HCl, pH 9.0
[4] = target: the molecule itself; assay: crystal structure; homo-tetramer in the asymmetric unit, space group P212121; crystals grown at 20°C by hanging-drop vapor diffusion, 0.1 M sodium acetate pH 4.8-5.4, 12-35% PEG 3350; apo form and complexes with NAD+/NADH and sugars

O=C1O[C@@H](CO)[C@H](O)[C@@H](O)[C@@H]1O [L-glucono-1,5-lactone]
X-ray crystal structure, 1.8 Å ([1]; crystal soaked with 100 mM L-glucose and 25 mM NAD+, active site, NADH complex): bound molecule in the active site was in fact the reaction product of L-glucose oxidation

NC(=O)C1=CN([C@@H]2O[C@H](COP(=O)(O)OP(=O)(O)OC[C@H]3O[C@@H](n4cnc5c(N)ncnc54)[C@H](O)[C@@H]3O)[C@@H](O)[C@H]2O)C=CC1 [NADH]
X-ray crystal structure, 1.8 Å ([1]; complex with L-glucono-1,5-lactone, crystal soaked with NAD+, assigned as NADH): the bound cofactor molecule might therefore be NADH

NC(=O)c1ccc[n+]([C@@H]2O[C@H](COP(=O)(O)OP(=O)(O)OC[C@H]3O[C@@H](n4cnc5c(N)ncnc54)[C@H](O)[C@@H]3O)[C@@H](O)[C@H]2O)c1 [NAD^+]
X-ray crystal structure, 2.0 Å ([2]; complex with scyllo-inosose (also with myo-inositol, 5YA8, 2.3 Å), 25 mM NAD+ soak): myo-inositol/NAD^+ and scyllo-inosose/NAD^+ complexes have been deposited

O[C@H]1[C@H](O)[C@@H](O)[C@H](O)[C@@H](O)[C@H]1O [myo-inositol]
X-ray crystal structure, 2.3 Å [3]: complex structures of Pl-scyllo-IDH with scyllo-inosose and myo-inositol were also determined

O=C1[C@@H](O)[C@H](O)[C@@H](O)[C@H](O)[C@H]1O [scyllo-inosose]
X-ray crystal structure, 2.0 Å ([2]; crystal soaked with 100 mM scyllo-inosose and 25 mM NAD+, active site): the carbonyl oxygen located between K106 and H195 formed hydrogen bonds

B1: scyllo-inositol dehydrogenase with L-glucose dehydrogenase activity (Pl-scyllo-IDH) (Paracoccus laeviglucosivorans; R178A) (protein)
chain: T1 sequence (K7ZP76 1-372) with R178A
notes: lgdA in pET21a(+), expressed in E. coli BL21(DE3), Ni-NTA purified; homo-tetramer, active site includes H318 of the adjacent subunit
Km (purified protein): 40.6 ± 7.2 mM
kcat (purified protein): 8.1 ± 0.65 s⁻¹
kcat/Km (purified protein): 200 M⁻¹ s⁻¹

B2: Paracoccus laeviglucosivorans scyllo-inositol dehydrogenase (enzyme)
chain: T1 sequence (K7ZP76 1-372)
notes: Protein encoded by the lgdA gene of Paracoccus laeviglucosivorans (scyllo-inositol dehydrogenase, GFO/IDH/MocA family); A selenomethionine-substituted form (E. coli B834(DE3)) was used only for phasing; Crystals were also soaked with NAD+ and L-glucose, myo-inositol or scyllo-inosose; also called Pl-scyllo-IDH; LgdA; source: E. coli BL21(DE3), pET21a(+), purified (Ni-NTA agarose, dialysis)
stoichiometry N [4]: 4

— paper PMC5969746 (PLoS ONE, 2018)
